Experimental data taken from patent US20060116407A1, “Amide derivatives” (priority 2004, published 2006).

Key:
[1] = biological target: T1, HER-2 (Homo sapiens, UniProt P04626); assay: Inhibition of HER-2 phosphorylation in Calu-3 tumor cell line; format: cell-based; details: Calu-3 cells, compound 1 μM, 16 h, pY 1248 in HER-2, percentage of DMSO control; read-out: Percent inhibition of HER2-phosphorylation (compound concentration 1 μM)
T1 construct: endogenous in cells; host or cells: Calu-3 (ATCC HTB-55)
T1 sequence (P04626 23-1255): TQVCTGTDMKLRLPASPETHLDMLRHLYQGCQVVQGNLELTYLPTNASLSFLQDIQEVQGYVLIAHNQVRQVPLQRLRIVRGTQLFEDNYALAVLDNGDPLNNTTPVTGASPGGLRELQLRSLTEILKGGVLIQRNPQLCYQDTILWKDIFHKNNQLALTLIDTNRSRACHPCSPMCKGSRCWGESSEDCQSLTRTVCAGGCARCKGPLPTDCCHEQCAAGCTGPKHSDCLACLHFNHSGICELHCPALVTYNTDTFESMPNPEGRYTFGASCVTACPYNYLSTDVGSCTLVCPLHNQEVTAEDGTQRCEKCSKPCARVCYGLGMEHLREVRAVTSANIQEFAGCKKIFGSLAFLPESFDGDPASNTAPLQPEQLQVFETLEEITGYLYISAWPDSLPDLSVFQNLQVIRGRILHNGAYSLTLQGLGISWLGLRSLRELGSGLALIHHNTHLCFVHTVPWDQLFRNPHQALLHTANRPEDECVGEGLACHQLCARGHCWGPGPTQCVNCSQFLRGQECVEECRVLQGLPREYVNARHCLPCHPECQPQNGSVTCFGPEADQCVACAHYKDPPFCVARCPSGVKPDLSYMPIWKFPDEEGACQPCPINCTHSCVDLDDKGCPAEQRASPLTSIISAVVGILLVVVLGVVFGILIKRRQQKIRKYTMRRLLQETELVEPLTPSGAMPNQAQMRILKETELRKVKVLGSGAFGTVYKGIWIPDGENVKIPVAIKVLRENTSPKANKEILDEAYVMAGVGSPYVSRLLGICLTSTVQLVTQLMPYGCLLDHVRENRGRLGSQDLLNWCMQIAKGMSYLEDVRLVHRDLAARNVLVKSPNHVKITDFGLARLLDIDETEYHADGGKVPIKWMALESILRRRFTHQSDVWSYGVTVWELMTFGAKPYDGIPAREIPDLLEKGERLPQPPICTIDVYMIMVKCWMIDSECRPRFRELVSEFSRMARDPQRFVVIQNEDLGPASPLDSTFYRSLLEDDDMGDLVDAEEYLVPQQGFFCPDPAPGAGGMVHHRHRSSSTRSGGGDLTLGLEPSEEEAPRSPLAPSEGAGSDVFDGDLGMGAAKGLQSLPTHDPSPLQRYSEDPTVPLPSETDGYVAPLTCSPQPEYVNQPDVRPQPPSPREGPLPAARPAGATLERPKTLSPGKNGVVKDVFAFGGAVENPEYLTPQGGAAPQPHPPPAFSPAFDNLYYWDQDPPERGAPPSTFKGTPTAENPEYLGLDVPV
Procedure: Inhibition of HER-2 Phosphorylation in Calu-3 Tumor Cell Line
2×10^5 Calu-3 (ATTC HTB-55) cells per well were plated in a 12-well plate. After 4 days cells were starved for 16 h in Dulbecco's Modified Eagle Medium (DMEM)/0.5% Fetal Calf Serum (FCS)/1% Glutamine. During this 16 h period cells were incubated with a solution of the test compound in dimethylsulfoxide(DMSO), so that the final concentration of the compound is 1 μM and the final volume of DMSO is 0.5%. Afterwards cells were lysed in lyses buffer containing 1% Triton®X-100, 10% Glycerol, 1 mM Ethylene glycol-bis(2-aminoethylether)-N,N,N′,N′-tetraacetic acid (EGTA), 1.5 mM MgCl2, 150 mM NaCl, 50 mM 4-(2-hydroxyethyl)-1-piperazineethanesulfonic acid (HEPES) buffer pH 7.5, 1 mM Phenylmethylsulfonyl fluoride (PMSF), 10 ∥g/mL Aprotinin and […] Orthovanadate. Cell lysates were analyzed on a Sodium Dodecyl Sulfate Polyacrylamide Gel Electrophoresis (SDS PAGE) and after transfer to a nitrocellulose membrane detected with an antibody specifically recognizing the pY 1248 in HER-2. Inhibition of HER-2 phosphorylation is calculated as percentage of the control, which is treated with DMSO only.

[2] = system: HEK293 cells; assay: Viability assay of HEK293 cells (CellTiter-Glo); format: cell-based; details: Homo sapiens, 168 h, 7 days, 3 μM to 0.00015 μM, luminescence
Procedure: Viability Assay of HEK293 Cells
A viability assay was performed using the CellTiter-Glo™ Luminescent Cell Viability Assay (see Promega Corporation's Technical Publication No. 288, pp. 1-11 [revised 2.04] which is hereby incorporated by reference in its entirety). This assay is a homogeneous method of determining the number of viable cells in culture based on quantitation of the ATP present, which signals the presence of metabolically active cells. The assay is designed for use with multiwell formats, making it ideal for automated high-throughput screening (HTS), cell proliferation and cytotoxicity assays. The homogeneous assay procedure involves adding a single reagent (containing luciferase, luciferan substrate, and buffer) directly to cells cultured in serum-supplemented medium. Cell washing, removal of medium and multiple pipetting steps are not required. The system detects as few as 15 cells/well in a 384-well format in 10 minutes after adding reagent and mixing.
The homogeneous “add-mix-measure” format results in cell lysis and generation of a luminescent signal proportional to the amount of ATP present. The amount of ATP is directly proportional to the number of cells present in culture. The above-referenced assay generates a “glow-type” luminescent signal, produced by the luciferase reaction, which has a half-life generally greater than five hours, depending on cell type and medium used. The extended half-life eliminates the need to use reagent injectors and provides flexibility for continuous or batch mode processing of multiple plates. The unique homogeneous format avoids errors that may be introduced by other ATP measurement methods that require multiple steps.
HEK293 cells (human embryonic kidney cell line transformed by Adenovirus 5 fragments, ATCC-No. CRL 1573) were cultivated in Dulbecco's Modified Eagle Medium (DMEM) (1×) liquid (high glucose) (which includes L-Alanyl-L-Glutamine [a stabilized a form of L-Glutamine], 4500 mg/L glucose, and 110 mg/L sodium pyruvate) from Invitrogen Corporation (Invitrogen Catalog Number 31966-021 [now 10569-010] which is hereby incorporated by reference in its entirety), 5% Fetal Calf Serum (FCS, Sigma Cat-No. F4135 (FBS) which is hereby incorporated by reference in its entirety), and 100 Units/ml penicillin/100 μg/ml streptomycin(=Pen/Strep from Invitrogen Cat. No. 15140 which is hereby incorporated by reference in its entirety). For the assay the cells were seeded in 384 well plates, 5000 cells per well, in the same medium. The next day the test compounds were added in various concentrations ranging from 3 μM to 0.00015 μM (10 concentrations, 1:3 diluted). After 7 days the above viability assay was performed in accordance with the following steps: • Step 1: The cell-plate was equilibrated to room temperature for approximately 30 minutes and than the assay reagent was added. • Step 2: The contents were carefully mixed for 15 minutes to induce cell lysis. • Step 3: After 45 minutes the luminescent signal was measured in Victor 2, (scanning multiwell spectrophotometer, Wallac). Details: 1st Day: • Medium: Dulbecco's Modified Eagle Medium (DMEM) (1×) liquid (high glucose) (which includes L-Alanyl-L-Glutamine [a stabilized a form/source of L-Glutamine], 4500 mg/L glucose, and 110 mg/L sodium pyruvate) from Invitrogen Corporation (Invitrogen Catalog Number 31966-021 [now 10569-010]), 5% Fetal Calf Serum (FCS, Sigma Cat-No. F4135 (FBS)), and Pen/Strep (Invitrogen Cat. No. 15140). • HEK293 (ATCC-No. CRL 1573): 5000 cells in 60 μl per well of 384 well plate. (Greiner 781098, white plates) • Incubate 24 h at 37° C., 5% CO2 2nd Day: Induction (Substance Testing):
In general the dilution steeps are 1:3 a) Add 8 μl of 10 mM stock solution of compound to 72 μl DMSO b) dilute 9×1:3 (always 30 μl to 60 μl DMSO) in this DMSO dilution row (results in 10 wells with concentrations from 1000 μM to 0.06 μM) c) dilute each concentration 1: 4.8 (10 μl compound dilution to 38 μl medium) […]

| inhibition at 1 µM [1] | SMILES | IC50 [2] |
| --- | --- | --- |
| 70 to 80% | O=C(Nc1ccc(S(F)(F)(F)(F)F)cc1)c1nc(COc2ccc(CCCCn3ccnn3)cc2)cs1 [Example 40, 4-[4-(4-[1,2,3]Triazol-1-yl-butyl)-phenoxymethyl]-thiazole-2-carboxylic acid (4-pentafluorosulfanyl-phenyl)-amide] | 5 to 500 nM |
| 70 to 80% | O=C(Nc1nc(COc2ccc(CCCCn3ccnn3)cc2)cs1)c1ccc(Cl)cc1 [Example 52-5, 4-Chloro-N-{4-[4-(4-[1,2,3]triazol-1-yl-butyl)-phenoxymethyl]-thiazol-2-yl}-benzamide] | 5 to 500 nM |
| 87% | O=C(Nc1ccc(OC(F)(F)F)cc1)c1nc(COc2ccc(CCCCn3ccnn3)cc2)cs1 [Example 39, 4-[4-(4-[1,2,3]Triazol-1-yl-butyl)-phenoxymethyl]-thiazole-2-carboxylic acid (4-trifluoromethoxy-phenyl)-amide] | 5 to 500 nM |
| 72% | O=C(Nc1ccc(Cl)cc1F)c1coc(COc2ccc(CCCCn3ccnn3)cc2)n1 [Example 14, 2-[4-(4-[1,2,3]Triazol-1-yl-butyl)-phenoxymethyl]-oxazole-4-carboxylic acid (4-chloro-2-fluoro-phenyl)-amide] | 500 to 3000 nM |
